Data on two compounds can be found in PubChem BioAssay AID1259407 (Chemical Carcinogenesis Research Information System (CCRIS), 2018).

The structures appear in SMILES notation. Calls of active or inactive are those of the source. No rule for the calls is given here.

The data set relates to CCRIS mutagenicity, Ames/micronucleus/aberration tests. The data set can be described thus: CCRIS mutagenicity studies.
Where [1] appears, read: Test System: AMES SALMONELLA TYPHIMURIUM, Strain/Indicator: TA100, Metabolic Activation: NONE, Method: PREINCUBATION

Take `O=CC(Br)CBr` (configuration not stated): the mutagenic call by setting is: under setting [1], “active; positive”; (Test System: AMES SALMONELLA TYPHIMURIUM, Strain/Indicator: TA100, Metabolic Activation: RAT, LIVER, MICROSOMES, Method: PREINCUBATION) “active; positive”; (Test System: UDS RAT HEPATOCYTES, Strain/Indicator: THY INCORP, Metabolic Activation: NONE) “inactive; negative”.

Turning to `Nc1ncnc2c1nc(-c1ccc([N+](=O)[O-])cc1)n2-c1ccc([N+](=O)[O-])cc1`, the mutagenic call reads like this: (Test System: AMES SALMONELLA TYPHIMURIUM, Strain/Indicator: TA98(1,8-DNP), Metabolic Activation: NONE, Method: PREINCUBATION) “active; positive”; (Test System: AMES SALMONELLA TYPHIMURIUM, Strain/Indicator: TA98(1,8-DNP), Metabolic Activation: RAT, LIVER, S-9, PCB, Method: PREINCUBATION) “active; positive”; (Test System: AMES SALMONELLA TYPHIMURIUM, Strain/Indicator: TA98(NR), Metabolic Activation: NONE, Method: PREINCUBATION) “active; positive”; (Test System: AMES SALMONELLA TYPHIMURIUM, Strain/Indicator: TA98(NR), Metabolic Activation: RAT, LIVER, S-9, PCB, Method: PREINCUBATION) “active; positive”; (Test System: AMES SALMONELLA TYPHIMURIUM, Strain/Indicator: TA98, Metabolic Activation: NONE, Method: PREINCUBATION) “active; positive”; (Test System: AMES SALMONELLA TYPHIMURIUM, Strain/Indicator: TA98, Metabolic Activation: RAT, LIVER, S-9, PCB, Method: PREINCUBATION) “active; positive”. Further, the mutagenic call is “inactive; negative” (Test System: AMES SALMONELLA TYPHIMURIUM, Strain/Indicator: TA100(1,8-DNP), Metabolic Activation: NONE, Method: PREINCUBATION); “inactive; negative” (Test System: AMES SALMONELLA TYPHIMURIUM, Strain/Indicator: TA100(1,8-DNP), Metabolic Activation: RAT, LIVER, S-9, PCB, Method: PREINCUBATION); “inactive; negative” (Test System: AMES SALMONELLA TYPHIMURIUM, Strain/Indicator: TA100(NR), Metabolic Activation: NONE, Method: PREINCUBATION); “inactive; negative” (Test System: AMES SALMONELLA TYPHIMURIUM, Strain/Indicator: TA100(NR), Metabolic Activation: RAT, LIVER, S-9, PCB, Method: PREINCUBATION); “active; positive” under setting [1]; “active; positive” (Test System: AMES SALMONELLA TYPHIMURIUM, Strain/Indicator: TA100, Metabolic Activation: RAT, LIVER, S-9, PCB, Method: PREINCUBATION). Besides, the mutagenic call runs as follows: (Test System: AMES SALMONELLA TYPHIMURIUM, Strain/Indicator: YG1020, Metabolic Activation: NONE, Method: PREINCUBATION) “active; positive”; (Test System: AMES SALMONELLA TYPHIMURIUM, Strain/Indicator: YG1020, Metabolic Activation: RAT, LIVER, S-9, PCB, Method: PREINCUBATION) “active; positive”; (Test System: AMES SALMONELLA TYPHIMURIUM, Strain/Indicator: YG1021, Metabolic Activation: NONE, Method: PREINCUBATION) “active; positive”; (Test System: AMES SALMONELLA TYPHIMURIUM, Strain/Indicator: YG1021, Metabolic Activation: RAT, LIVER, S-9, PCB, Method: PREINCUBATION) “active; positive”; (Test System: AMES SALMONELLA TYPHIMURIUM, Strain/Indicator: YG1024, Metabolic Activation: NONE, Method: PREINCUBATION) “active; positive”; (Test System: AMES SALMONELLA TYPHIMURIUM, Strain/Indicator: YG1024, Metabolic Activation: RAT, LIVER, S-9, PCB, Method: PREINCUBATION) “active; positive”. For the same compound, the mutagenic call runs as follows: (Test System: AMES SALMONELLA TYPHIMURIUM, Strain/Indicator: YG1025, Metabolic Activation: NONE, Method: PREINCUBATION) “active; positive”; (Test System: AMES SALMONELLA TYPHIMURIUM, Strain/Indicator: YG1025, Metabolic Activation: RAT, LIVER, S-9, PCB, Method: PREINCUBATION) “active; positive”; (Test System: AMES SALMONELLA TYPHIMURIUM, Strain/Indicator: YG1026, Metabolic Activation: NONE, Method: PREINCUBATION) “active; positive”; (Test System: AMES SALMONELLA TYPHIMURIUM, Strain/Indicator: YG1026, Metabolic Activation: RAT, LIVER, S-9, PCB, Method: PREINCUBATION) “active; positive”; (Test System: AMES SALMONELLA TYPHIMURIUM, Strain/Indicator: YG1029, Metabolic Activation: NONE, Method: PREINCUBATION) “active; positive”; (Test System: AMES SALMONELLA TYPHIMURIUM, Strain/Indicator: YG1029, Metabolic Activation: RAT, LIVER, S-9, PCB, Method: PREINCUBATION) “active; positive”.
